“Also recorded” adds a separate entry of the source.
Experiments:
KM-12 cells [1] = test: KM-12 anchorage independent growth in alginate; type: cell-based; settings: alginate, 72 hours, colony formation, read-out: IC50 KM-12 anchorage independent growth
MET = MET (Homo sapiens, UniProt P08581); test: scanMAX kinase panel
[2] = system: MKNK1/2 (p-eIF4E S209) in KM-12 cells; test: Western blot of p-eIF4E S209 in KM-12 cells; type: cell-based; settings: KM-12 cells, 2 hours, western blot; for p-eIF4E reduction (MKNK1/2 inhibition, in words): b12: 100, 500, 1000 nM
Experimental: 20 μg NTRK1 fusion confirmation
T20 (ThermoScientific, Rockford, IL) for 30 minutes. MiniPrep cat# R2051 following manufacturer ’s protocol. […]
(1:2000) (Sigma-Aldrich), HRP-conjugated mouse or primers. The primer sequences are TPM3_Ex3B_F5:
Chalfont, UK). All western blots were developed using Ex12_R5: […]. PCR was […]

RET = RET (Homo sapiens, UniProt P07949); test: scanMAX kinase panel
MKNK1 = MKNK1 (Homo sapiens, UniProt Q9BUB5); test: scanMAX kinase panel
FLT3 = target: T1, FLT3 (Homo sapiens, UniProt P36888); test: scanMAX kinase panel
T1 sequence (P36888 27-993): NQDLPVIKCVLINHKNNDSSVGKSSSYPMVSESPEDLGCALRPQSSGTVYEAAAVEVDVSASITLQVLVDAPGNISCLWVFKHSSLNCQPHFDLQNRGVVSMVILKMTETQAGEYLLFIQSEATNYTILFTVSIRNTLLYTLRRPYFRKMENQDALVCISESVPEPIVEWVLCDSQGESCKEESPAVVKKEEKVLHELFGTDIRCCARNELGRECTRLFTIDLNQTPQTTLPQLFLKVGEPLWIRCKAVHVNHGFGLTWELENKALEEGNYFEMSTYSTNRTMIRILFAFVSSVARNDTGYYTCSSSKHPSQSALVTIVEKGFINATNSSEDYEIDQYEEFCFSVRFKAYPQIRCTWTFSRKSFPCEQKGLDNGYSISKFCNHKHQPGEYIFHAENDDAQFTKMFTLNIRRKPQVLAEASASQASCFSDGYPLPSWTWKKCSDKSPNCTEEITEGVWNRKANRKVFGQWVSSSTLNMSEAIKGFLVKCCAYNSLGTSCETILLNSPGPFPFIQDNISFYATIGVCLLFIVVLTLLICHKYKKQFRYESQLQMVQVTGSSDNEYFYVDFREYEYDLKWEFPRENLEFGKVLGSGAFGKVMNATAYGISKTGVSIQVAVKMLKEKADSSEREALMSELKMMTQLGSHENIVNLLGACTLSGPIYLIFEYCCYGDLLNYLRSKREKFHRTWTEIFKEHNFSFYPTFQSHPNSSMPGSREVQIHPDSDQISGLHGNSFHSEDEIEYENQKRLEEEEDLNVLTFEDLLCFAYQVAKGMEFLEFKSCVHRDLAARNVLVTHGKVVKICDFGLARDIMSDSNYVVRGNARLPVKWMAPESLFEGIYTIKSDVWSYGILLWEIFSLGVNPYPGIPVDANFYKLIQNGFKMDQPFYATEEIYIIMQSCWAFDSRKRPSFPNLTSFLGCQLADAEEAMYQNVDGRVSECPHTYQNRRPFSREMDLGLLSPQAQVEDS

NTRK1 (TrkA) = NTRK1 (TrkA) (Homo sapiens, UniProt P04629); test: TrkA PathHunter cell based kinase assay (activation by NGF); set-up: purchased DiscoveRx; settings: activation by the ligand NGF; ten-point, 3.8 nM - 10 μM
ROS1 = ROS1 (Homo sapiens, UniProt P08922); test: scanMAX kinase panel
KM-12 cells [3] = test: KM-12 anchorage dependent cell proliferation (CellTiter-Glo); type: cell-based; settings: read-out: IC50 KM-12 cell proliferation (anchorage dependent)
PDGFRA = PDGFRA (Homo sapiens, UniProt P16234); test: scanMAX kinase panel
[4] = target: TPM3-NTRK1 (p-NTRK1 Y490) in KM-12 cells (Homo sapiens, UniProt P04629+P06753); test: Western blot of p-NTRK1 Y490 in KM-12 cells; settings: 2 hours, b12: 100, 500, 1000 nM
DDR2 = target: T2, DDR2 (Homo sapiens, UniProt Q16832); test: scanMAX kinase panel
T2 sequence (Q16832 22-855): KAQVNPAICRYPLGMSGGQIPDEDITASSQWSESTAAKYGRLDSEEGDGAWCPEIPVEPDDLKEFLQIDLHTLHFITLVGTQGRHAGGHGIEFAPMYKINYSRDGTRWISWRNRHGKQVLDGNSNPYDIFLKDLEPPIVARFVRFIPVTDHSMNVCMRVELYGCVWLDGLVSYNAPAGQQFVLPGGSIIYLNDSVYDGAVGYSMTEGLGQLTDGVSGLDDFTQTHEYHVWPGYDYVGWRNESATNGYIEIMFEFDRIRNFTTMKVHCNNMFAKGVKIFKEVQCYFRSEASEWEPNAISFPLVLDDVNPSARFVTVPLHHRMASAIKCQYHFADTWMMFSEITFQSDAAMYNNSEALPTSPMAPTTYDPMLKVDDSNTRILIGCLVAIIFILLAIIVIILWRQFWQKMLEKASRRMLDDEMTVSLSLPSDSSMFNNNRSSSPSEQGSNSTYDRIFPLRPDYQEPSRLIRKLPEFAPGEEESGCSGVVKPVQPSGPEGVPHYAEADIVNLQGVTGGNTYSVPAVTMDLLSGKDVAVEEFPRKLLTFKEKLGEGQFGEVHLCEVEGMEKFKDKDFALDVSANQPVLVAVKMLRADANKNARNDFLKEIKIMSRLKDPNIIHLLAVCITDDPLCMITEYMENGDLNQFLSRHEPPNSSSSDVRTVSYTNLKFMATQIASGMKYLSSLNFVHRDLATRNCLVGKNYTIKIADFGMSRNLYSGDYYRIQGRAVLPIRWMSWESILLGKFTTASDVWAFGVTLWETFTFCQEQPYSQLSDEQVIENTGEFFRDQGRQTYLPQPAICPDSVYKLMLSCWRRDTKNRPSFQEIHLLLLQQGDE

[5] = 72 hours, CellTiter-Glo, 2% FBS

Sequence of RET (P07949 29-1114): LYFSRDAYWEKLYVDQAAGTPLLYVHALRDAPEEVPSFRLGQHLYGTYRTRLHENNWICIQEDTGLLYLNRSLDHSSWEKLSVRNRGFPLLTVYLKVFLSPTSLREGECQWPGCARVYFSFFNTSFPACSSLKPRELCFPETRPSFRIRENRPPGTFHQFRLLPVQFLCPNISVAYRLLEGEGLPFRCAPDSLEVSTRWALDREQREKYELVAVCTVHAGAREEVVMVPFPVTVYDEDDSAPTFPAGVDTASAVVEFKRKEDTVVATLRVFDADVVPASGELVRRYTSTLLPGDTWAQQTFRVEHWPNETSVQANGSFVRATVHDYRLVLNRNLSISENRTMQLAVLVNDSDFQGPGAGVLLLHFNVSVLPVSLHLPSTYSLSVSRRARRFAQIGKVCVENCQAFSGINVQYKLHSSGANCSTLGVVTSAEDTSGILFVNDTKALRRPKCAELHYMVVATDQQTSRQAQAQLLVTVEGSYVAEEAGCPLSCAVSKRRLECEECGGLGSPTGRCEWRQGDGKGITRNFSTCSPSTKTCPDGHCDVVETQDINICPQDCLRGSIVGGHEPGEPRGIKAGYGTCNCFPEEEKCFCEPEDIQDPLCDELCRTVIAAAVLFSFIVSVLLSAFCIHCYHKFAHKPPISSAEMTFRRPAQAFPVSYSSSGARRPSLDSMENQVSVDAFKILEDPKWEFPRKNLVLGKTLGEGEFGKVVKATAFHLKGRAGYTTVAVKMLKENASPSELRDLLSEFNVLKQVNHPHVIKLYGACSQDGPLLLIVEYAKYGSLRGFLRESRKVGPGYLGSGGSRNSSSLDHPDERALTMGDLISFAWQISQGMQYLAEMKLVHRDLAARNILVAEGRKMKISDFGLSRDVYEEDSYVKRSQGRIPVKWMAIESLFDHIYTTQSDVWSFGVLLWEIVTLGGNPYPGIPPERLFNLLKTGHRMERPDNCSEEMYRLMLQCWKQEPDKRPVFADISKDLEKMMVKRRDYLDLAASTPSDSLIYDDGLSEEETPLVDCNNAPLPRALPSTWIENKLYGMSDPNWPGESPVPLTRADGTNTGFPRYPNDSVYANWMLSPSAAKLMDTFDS
Sequence of MET (P08581 25-1390): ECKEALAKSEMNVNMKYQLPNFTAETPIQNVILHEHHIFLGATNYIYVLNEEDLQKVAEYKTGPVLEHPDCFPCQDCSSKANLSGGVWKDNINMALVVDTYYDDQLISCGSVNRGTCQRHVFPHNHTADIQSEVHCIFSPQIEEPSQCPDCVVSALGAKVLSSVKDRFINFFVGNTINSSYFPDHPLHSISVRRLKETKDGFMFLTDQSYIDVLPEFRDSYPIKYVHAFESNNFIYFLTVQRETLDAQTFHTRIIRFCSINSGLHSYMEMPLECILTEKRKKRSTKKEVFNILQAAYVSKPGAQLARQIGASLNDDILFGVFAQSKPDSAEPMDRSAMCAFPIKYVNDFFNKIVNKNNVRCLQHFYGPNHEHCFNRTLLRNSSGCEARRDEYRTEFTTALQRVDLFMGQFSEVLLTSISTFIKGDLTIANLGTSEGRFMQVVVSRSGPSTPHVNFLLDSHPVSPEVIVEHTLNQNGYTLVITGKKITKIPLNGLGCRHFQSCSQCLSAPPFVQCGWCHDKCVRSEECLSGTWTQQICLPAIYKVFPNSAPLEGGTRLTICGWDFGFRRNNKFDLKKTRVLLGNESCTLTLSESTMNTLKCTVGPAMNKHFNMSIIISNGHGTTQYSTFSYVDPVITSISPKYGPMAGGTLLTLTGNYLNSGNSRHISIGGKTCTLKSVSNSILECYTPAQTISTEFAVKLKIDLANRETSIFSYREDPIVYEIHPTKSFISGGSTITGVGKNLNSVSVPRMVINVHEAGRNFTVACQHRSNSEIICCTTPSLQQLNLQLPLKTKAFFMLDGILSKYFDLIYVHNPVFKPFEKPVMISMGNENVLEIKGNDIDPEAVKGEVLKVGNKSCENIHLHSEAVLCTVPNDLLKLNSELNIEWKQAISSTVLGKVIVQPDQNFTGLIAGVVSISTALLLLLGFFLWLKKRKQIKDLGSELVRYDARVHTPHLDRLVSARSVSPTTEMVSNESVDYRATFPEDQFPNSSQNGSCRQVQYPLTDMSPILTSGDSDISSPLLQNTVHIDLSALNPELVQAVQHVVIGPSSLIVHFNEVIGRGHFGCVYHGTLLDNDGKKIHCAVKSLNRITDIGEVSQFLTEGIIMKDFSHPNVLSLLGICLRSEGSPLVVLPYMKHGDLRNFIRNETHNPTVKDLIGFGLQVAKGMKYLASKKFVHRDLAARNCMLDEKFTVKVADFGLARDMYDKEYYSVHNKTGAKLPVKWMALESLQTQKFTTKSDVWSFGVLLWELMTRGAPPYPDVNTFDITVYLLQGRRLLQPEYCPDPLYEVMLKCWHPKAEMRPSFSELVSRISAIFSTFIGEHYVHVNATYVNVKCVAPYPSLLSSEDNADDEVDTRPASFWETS
Sequence of ROS1 (P08922 28-2347): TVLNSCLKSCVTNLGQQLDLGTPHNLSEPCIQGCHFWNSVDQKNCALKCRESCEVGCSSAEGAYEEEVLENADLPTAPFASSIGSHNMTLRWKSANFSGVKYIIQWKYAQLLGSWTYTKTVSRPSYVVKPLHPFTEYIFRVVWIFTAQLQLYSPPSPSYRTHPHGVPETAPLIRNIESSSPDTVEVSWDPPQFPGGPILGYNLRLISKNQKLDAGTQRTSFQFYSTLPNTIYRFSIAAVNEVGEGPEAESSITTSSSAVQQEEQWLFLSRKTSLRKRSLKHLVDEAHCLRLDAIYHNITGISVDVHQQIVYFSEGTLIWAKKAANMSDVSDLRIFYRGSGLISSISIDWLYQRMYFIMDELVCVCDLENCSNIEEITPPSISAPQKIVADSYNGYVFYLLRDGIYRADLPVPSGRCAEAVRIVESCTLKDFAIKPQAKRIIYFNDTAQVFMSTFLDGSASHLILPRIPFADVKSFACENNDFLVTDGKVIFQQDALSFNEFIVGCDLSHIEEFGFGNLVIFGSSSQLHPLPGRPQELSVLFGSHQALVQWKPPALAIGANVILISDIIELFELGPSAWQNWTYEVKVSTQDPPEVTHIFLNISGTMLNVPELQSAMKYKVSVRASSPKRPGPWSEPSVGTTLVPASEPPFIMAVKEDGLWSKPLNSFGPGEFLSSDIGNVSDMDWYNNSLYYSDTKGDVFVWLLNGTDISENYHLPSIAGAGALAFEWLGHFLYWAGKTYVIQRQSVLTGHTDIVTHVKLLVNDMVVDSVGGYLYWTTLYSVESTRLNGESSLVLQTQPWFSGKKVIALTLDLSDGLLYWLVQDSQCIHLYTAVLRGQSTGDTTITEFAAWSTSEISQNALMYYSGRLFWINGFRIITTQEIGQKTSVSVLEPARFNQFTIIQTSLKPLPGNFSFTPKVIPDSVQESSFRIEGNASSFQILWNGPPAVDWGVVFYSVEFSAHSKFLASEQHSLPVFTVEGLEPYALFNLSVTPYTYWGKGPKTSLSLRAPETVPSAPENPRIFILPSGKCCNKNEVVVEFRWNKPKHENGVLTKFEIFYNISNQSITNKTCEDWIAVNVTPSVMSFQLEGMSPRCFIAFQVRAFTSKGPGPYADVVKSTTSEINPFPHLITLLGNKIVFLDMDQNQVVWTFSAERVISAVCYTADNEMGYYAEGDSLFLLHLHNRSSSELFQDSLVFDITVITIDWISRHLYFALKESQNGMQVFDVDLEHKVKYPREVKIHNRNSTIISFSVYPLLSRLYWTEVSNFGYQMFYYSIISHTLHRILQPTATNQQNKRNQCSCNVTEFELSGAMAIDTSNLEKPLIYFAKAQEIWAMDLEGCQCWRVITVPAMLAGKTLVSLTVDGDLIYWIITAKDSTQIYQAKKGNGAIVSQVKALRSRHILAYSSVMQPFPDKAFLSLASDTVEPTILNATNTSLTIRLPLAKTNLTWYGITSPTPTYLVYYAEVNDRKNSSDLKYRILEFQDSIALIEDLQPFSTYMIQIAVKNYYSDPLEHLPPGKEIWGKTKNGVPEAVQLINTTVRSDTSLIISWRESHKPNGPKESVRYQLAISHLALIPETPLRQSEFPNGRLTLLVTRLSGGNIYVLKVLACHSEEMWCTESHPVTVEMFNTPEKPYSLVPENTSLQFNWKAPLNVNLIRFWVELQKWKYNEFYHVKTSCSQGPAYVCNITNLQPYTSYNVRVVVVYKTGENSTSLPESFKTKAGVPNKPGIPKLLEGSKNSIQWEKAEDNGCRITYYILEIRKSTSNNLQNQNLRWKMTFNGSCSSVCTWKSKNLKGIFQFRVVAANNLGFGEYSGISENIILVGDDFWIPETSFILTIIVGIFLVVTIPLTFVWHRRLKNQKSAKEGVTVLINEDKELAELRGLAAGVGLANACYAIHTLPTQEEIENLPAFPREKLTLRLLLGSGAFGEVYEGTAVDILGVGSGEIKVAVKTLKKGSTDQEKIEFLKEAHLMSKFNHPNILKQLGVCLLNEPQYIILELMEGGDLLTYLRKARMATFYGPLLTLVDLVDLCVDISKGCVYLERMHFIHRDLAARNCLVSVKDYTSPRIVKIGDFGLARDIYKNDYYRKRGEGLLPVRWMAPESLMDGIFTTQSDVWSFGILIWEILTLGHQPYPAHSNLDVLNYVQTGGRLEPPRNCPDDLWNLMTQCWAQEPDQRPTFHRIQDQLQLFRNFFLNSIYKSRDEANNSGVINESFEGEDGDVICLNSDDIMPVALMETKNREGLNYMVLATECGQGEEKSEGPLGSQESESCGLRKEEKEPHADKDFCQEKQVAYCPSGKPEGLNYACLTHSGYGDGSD

Row | Compound | IC50 (KM-12 cells [1]) | % Inhibition at 0.2 μM, MET (MET) | p-eIF4E reduction (MKNK1/2 inhibition, in words) [2] | % Inhibition at 0.2 μM, RET (RET) | % Inhibition at 0.2 μM, MKNK1 (MKNK1) | % Inhibition at 0.2 μM, FLT3 (FLT3) | IC50 (NTRK1 (TrkA)) | % Inhibition at 0.2 μM, ROS1 (ROS1) | IC50 (KM-12 cells [3]; [5]) | % Inhibition at 0.2 μM, PDGFRA (PDGFRA) | p-NTRK1 inhibition (in words) [4] | % Inhibition at 0.2 μM, DDR2 (DDR2) | IC50 (KM-12 cells [1]; Homo sapiens, KM12) | Concentration giving near-complete inhibition of p-eIF4E ([2]; 3.9-1000 nM) | inhibition at 0.2 µM (MKNK1; read-out: % Inhibition at 0.2 μM, MKNK1) | IC50 (KM-12 cells [3]; Homo sapiens, KM12, 72 h)
1 | Cc1ccc(C(=O)Nc2ccc(Oc3cc4cn[nH]c4cc3-c3cn[nH]c3)c(F)c2)c(=O)n1-c1ccc(F)cc1 [M1] | 79 nM | 100% | potent inhibition | 72% | 70% | 96% | 12 nM | 95% | 16 nM | 80% | potent inhibition | 94% | – | – | – | –
2 | Cn1ncc2cc(Oc3ccc(NC(=O)c4ccc(CO)n(-c5ccc(F)cc5)c4=O)cc3F)c(-c3cn[nH]c3)cc21 [M2] | 206 nM | 93% | slightly less so | 61% | 62% | 97% | 92 nM | 78% | 102 nM | 70% | slightly less so | 99% | – | – | – | –
3 | Cc1ccc(C(=O)Nc2ccc(Oc3cc4cnn(C)c4cc3-c3cn[nH]c3)c(F)c2)c(=O)n1-c1ccc(F)cc1 [Merestinib] | – | 98% | potent inhibition | 79% | – | 95% | 17 nM | 83% | – | 55% | dose dependent decrease; also recorded: potent inhibition | 97% | 45 nM | 62.5 nM | 56% | 10 nM

From article PMC5862616 (Oncotarget, 2018)
